From patent US20130059824A1, “METHODS FOR TREATING MILD COGNITIVE IMPAIRMENT” (AFRAXis, Inc., priority 2009, published 2013)
pIC50: −log10 of the molar value.

Columns and labels:
PAK1 = PAK1 (Homo sapiens, UniProt Q13153); test: Z'Lyte fluorescence-based (FRET) kinase assay, PAK1; type: biochemical; conditions: 50 μM ATP (Km apparent), 1 hr room temperature
Method: (§1) A fluorescence-based assay format is used to determine IC50 values of test compounds in vitro. Purified PAK kinase is incubated with ATP, and a test compound at various concentrations and a substrate peptide containing two fluorophores. In a second step, the reaction mix is incubated with a site-specific protease that cleaves non-phosphorylated but not phosphorylated substrate peptide, disrupting the FRET signal generated by the two fluorophores in the cleaved peptide (Z'Lyte™ Kinase assay platform; Life Technologies).
(§2) Reagents: 50 mM HEPES, pH 7.5; 0.01% BRIJ-35; 10 mM MgCl2; 1 mM EGTA, 2 uM substrate peptide Ser/Thr20 (proprietary Life Technologies Sequence), PAK enzyme [2.42-30.8 ng for PAK1, 0.29-6 ng for PAK2, 1.5-20 ng for PAK3 and 0.1-0.86 ng for PAK4; actual enzyme amounts depend on lot activity of the enzyme preparation]
(§3) Test compounds are dissolved in DMSO at various concentrations; the final DMSO concentration in the assay reaction is 1%.
(§4) ATP concentration at Km apparent is used in the assay [50 ? M ATP for PAK1 assay, 75 ? […]
(§5) Plates are analyzed in a standard fluorescence plate reader (Tecan or equivalent) using an excitation wavelength of 400 nm and emission wavelengths of 445 nm and 520 nm Inhibition of kinase reaction is determined by emission ratio=emission@ 445 nm/emission@ 520 nm

PAK3 = PAK3 (Homo sapiens, UniProt O75914); test: Z'Lyte fluorescence-based (FRET) kinase assay, PAK3; type: biochemical; conditions: 100 μM ATP (Km apparent), 1 hr room temperature
Method: as §1, §2, §3, §4, §5

PAK2 = PAK2 (Homo sapiens, UniProt Q13177); test: Z'Lyte fluorescence-based (FRET) kinase assay, PAK2; type: biochemical; conditions: 75 μM ATP (Km apparent), 1 hr room temperature
Method: as §1, §2, §3, §4, §5

PAK4 = PAK4 (Homo sapiens, UniProt O96013); test: Z'Lyte fluorescence-based (FRET) kinase assay, PAK4; type: biochemical; conditions: 5 μM ATP (Km apparent), 1 hr room temperature
Method: as §1, §2, §3, §4, §5

[1] = test system: C57/black 6 mice temporal cortex slices; test: Slice electrophysiology assay (LTP in cortical slices); type: cell-based; conditions: 1 μM compound; theta-burst stimulation protocol; temporal cortex slices of C57/black 6 mice
Method: Materials: coronal cortical slices (400 μam) containing temporal cortex from 2- to 3-month-old C57-Black-6 mice male littermates (from Elevage Janvier, FRANCE) are prepared and allowed to recover in oxygenated (95% O2 and 5% CO2) warm (30° C.) artificial cerebrospinal fluid (ACSF) containing 124 mM NaCl, 5 mM KCl, 1.25 mM, NaH2PO4, 1 mM MgCl2, 2 mM CaCl2, 26 mM NaHCO3, and 10 mM dextrose.
Compound dilution: a 10 mM DMSO stock solution is prepared for each test compound and 100 μL aliquots are stored at −20° C. On the day of experiment an aliquot is thawed and vortexed for fresh solutions preparation. […]
LTP: a stimulus is applied every 30 s with an intensity settled at 40% of the maximal amplitude responses. […] Potentiation of synaptic transmission is then monitored for an additional 40 minutes period. […]
Compound evaluation: following a 10 minutes control recording period (to verify baseline stability), the compound is perfused for 20 minutes. Then, LTP is triggered and the fEPSP amplitude will be recorded for an additional 40 minutes period in the presence of compound.
Data analysis: fEPSP amplitudes are measured as the difference between the baseline (before stimulation) and the maximal peak amplitude. The fEPSP are normalized as a percent of the mean averaged amplitude recorded over a 10 min control period, before compound application. […]

Chain of PAK4 (O96013 whole entry): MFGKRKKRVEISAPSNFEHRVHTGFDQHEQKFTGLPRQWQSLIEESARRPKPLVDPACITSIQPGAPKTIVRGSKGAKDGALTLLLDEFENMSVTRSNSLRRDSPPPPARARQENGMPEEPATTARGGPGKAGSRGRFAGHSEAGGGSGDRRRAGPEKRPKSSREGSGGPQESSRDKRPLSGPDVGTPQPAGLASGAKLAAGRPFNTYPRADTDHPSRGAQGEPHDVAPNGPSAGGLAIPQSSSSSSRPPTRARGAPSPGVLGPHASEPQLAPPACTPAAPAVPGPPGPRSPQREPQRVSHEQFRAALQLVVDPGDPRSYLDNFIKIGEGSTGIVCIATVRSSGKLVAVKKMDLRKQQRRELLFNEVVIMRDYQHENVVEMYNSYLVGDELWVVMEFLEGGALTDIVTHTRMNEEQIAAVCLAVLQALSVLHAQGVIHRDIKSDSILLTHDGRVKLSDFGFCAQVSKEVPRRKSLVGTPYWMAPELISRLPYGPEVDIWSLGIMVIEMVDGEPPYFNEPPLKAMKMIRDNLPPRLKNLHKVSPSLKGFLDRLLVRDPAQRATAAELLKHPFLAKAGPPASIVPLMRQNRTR
Chain of PAK1 (Q13153 whole entry): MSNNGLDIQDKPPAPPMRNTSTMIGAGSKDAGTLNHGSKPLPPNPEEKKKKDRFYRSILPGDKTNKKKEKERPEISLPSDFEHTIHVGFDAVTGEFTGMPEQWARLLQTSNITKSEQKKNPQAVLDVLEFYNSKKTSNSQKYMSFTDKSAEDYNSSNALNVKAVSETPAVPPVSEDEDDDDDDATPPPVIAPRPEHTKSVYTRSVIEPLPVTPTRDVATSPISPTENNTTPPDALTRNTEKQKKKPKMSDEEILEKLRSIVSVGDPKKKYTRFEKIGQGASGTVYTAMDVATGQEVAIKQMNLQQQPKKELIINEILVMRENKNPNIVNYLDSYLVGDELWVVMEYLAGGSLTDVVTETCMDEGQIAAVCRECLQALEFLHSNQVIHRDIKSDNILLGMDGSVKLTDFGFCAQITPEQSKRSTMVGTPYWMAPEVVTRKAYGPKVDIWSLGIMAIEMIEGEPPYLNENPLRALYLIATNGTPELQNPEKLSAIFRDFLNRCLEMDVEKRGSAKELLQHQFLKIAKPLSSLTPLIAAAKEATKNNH
Chain of PAK3 (O75914 whole entry): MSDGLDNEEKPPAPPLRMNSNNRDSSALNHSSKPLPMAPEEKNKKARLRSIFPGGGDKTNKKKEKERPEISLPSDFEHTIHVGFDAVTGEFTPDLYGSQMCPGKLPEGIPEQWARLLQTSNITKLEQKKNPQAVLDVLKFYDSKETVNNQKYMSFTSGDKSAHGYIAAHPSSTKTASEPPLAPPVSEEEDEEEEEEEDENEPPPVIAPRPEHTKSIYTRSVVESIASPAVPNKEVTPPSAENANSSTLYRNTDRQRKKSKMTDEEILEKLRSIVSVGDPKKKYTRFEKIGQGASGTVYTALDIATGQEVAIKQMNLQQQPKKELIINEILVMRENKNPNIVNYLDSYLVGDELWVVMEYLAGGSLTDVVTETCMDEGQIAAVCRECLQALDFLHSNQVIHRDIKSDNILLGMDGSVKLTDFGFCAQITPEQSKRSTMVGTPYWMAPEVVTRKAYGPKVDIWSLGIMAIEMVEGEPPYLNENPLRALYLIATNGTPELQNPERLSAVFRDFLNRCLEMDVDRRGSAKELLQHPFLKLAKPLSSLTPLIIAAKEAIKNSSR
Chain of PAK2 (Q13177 whole entry): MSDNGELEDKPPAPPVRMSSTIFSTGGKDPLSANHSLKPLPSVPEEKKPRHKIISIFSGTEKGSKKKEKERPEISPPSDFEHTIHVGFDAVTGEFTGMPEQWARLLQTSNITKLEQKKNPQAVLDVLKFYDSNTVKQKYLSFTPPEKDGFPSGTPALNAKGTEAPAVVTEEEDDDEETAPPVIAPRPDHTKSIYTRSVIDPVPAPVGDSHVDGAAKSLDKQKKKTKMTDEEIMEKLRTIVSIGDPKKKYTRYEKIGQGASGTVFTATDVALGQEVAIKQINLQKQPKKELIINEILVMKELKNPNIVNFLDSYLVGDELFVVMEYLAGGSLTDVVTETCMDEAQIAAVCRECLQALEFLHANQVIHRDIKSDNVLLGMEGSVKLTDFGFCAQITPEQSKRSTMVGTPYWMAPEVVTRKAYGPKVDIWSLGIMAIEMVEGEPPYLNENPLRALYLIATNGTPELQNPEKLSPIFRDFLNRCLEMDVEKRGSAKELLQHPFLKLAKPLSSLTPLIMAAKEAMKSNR

Row | pIC50 (PAK1) | pIC50 (PAK3) | pIC50 (PAK2) | pIC50 (PAK4) | SMILES | LTP compared to the baseline (fEPSP amplitude) [1]
1 | > 6.00 | > 6.00 | > 6.00 | 5.00 to 6.00 | CCOc1ccccc1Cn1c(=O)ccc2cnc(Nc3ccc(N4CCN(C)CC4)cc3)nc21 [Compound 62] | –
2 | – | – | – | – | CN1CCN(c2ccc(Nc3ncc4ccc(=O)n(C5CCCC5)c4n3)cc2)CC1 [Compound G, 8-cyclopentyl-2-(4-(4-methylpiperazin-1-yl)phenylamino)pyrido[2,3-d]pyrimidin-7(8H)-one] | increased LTP
3 | – | – | – | – | COc1cc(Nc2nccc(-c3ccc(NCCN)nc3)n2)cc(OC)c1OC [Compound A] | increased LTP
